Measured values from ChEMBL document CHEMBL3885881, “DrugMatrix”.

Organism: Rattus norvegicus
Test: DrugMatrix - Regimen: Daily Repeat
Assay type: toxicity, organism-based, Sprague-Dawley
Set-up: regimen Daily Repeat, gender Male, age 6-8 weeks
Conditions: in vivo, po, route oral GAVAGE, vehicle 100 % SALINE; for ABSOLUTE BASOPHIL / ABSOLUTE EOSINOPHIL / ABSOLUTE LYMPHOCYTE / ABSOLUTE MONOCYTE / ABSOLUTE SEGMENTED NEUTROPHIL / BASOPHIL / EOSINOPHIL / ERYTHROCYTE COUNT / HEMATOCRIT / HEMOGLOBIN / LEUKOCYTE COUNT / LYMPHOCYTE / MEAN CORPUSCULAR HEMOGLOBIN / MEAN CORPUSCULAR HEMOGLOBIN CONCENTRATION / MEAN CORPUSCULAR VOLUME / MONOCYTE / NEUTROPHIL / NUCLEATED RED BLOOD CELLS / PLATELET COUNT: tissue Blood; for ALANINE AMINOTRANSFERASE / ALBUMIN / ALKALINE PHOSPHATASE / ASPARTATE AMINOTRANSFERASE / BLOOD UREA NITROGEN / CARBON DIOXIDE / CHLORIDE / CHOLESTEROL / CREATINE PHOSPHOKINASE / CREATININE / GLUCOSE / LACTATE DEHYDROGENASE / LIPASE / PHOSPHORUS / POTASSIUM / SODIUM / TOTAL BILIRUBIN / TOTAL PROTEIN / URIC ACID: tissue Plasma
[1] = 0 mg/kg, 72 h, dose level Control, time 3 day
[2] = 0 mg/kg, 120 h, dose level Control, time 5 day
[3] = 46 mg/kg, 72 h, dose level Low, time 3 day

## COc1ccc2cc(CC(=O)O)ccc2c1
[1]
  ABSOLUTE BASOPHIL: 0 CELLS/uL
  ABSOLUTE EOSINOPHIL: 26.83 CELLS/uL
  ABSOLUTE LYMPHOCYTE: 12748.5 CELLS/uL
  ABSOLUTE MONOCYTE: 140.5 CELLS/uL
  ABSOLUTE SEGMENTED NEUTROPHIL: 1067.5 CELLS/uL
  BASOPHIL: 0%
  EOSINOPHIL: 0.17%
  ERYTHROCYTE COUNT: 5.51 x10E6/uL
  HEMATOCRIT: 34.75%
  HEMOGLOBIN: 13.65 G/DL
  LEUKOCYTE COUNT: 13.98 x10E3/uL
  LYMPHOCYTE: 91.17%
  MEAN CORPUSCULAR HEMOGLOBIN: 24.8 pg
  MEAN CORPUSCULAR HEMOGLOBIN CONCENTRATION: 39.33 G/DL
  MEAN CORPUSCULAR VOLUME: 63.03 fL
  MONOCYTE: 1%
  NEUTROPHIL: 7.67%
  NUCLEATED RED BLOOD CELLS: 0 /100WBC
  PLATELET COUNT: 1278.17 x10E3/uL
  ALANINE AMINOTRANSFERASE: 52.17 u/L
  ALBUMIN: 4.07 G/DL
  ALKALINE PHOSPHATASE: 416.83 u/L
  ASPARTATE AMINOTRANSFERASE: 109.67 u/L
  BLOOD UREA NITROGEN: 16.83 mg/dL
  CARBON DIOXIDE: 28 mmol/L
  CHLORIDE: 100.83 MEQ/L
  CHOLESTEROL: 69 mg/dL
  CREATINE PHOSPHOKINASE: 1155.67 u/L
  CREATININE: 0.32 mg/dL
  GLUCOSE: 186.5 mg/dL
  LACTATE DEHYDROGENASE: 345.67 u/L
  LIPASE: 12.17 u/L
  PHOSPHORUS: 12.45 mg/dL
  POTASSIUM: 6.85 MEQ/L
  SODIUM: 141.4 MEQ/L
  TOTAL BILIRUBIN: 0.23 mg/dL
  TOTAL PROTEIN: 5.63 G/DL
  URIC ACID: 2.22 mg/dL
[2]
  ABSOLUTE BASOPHIL: 0 CELLS/uL
  ABSOLUTE EOSINOPHIL: 114.33 CELLS/uL
  ABSOLUTE LYMPHOCYTE: 11655.33 CELLS/uL
  ABSOLUTE MONOCYTE: 142 CELLS/uL
  ABSOLUTE SEGMENTED NEUTROPHIL: 1055 CELLS/uL
  BASOPHIL: 0%
  EOSINOPHIL: 0.83%
  ERYTHROCYTE COUNT: 5.68 x10E6/uL
  HEMATOCRIT: 35.92%
  HEMOGLOBIN: 14.13 G/DL
  LEUKOCYTE COUNT: 12.97 x10E3/uL
  LYMPHOCYTE: 90%
  MEAN CORPUSCULAR HEMOGLOBIN: 24.93 pg
  MEAN CORPUSCULAR HEMOGLOBIN CONCENTRATION: 39.37 G/DL
  MEAN CORPUSCULAR VOLUME: 63.33 fL
  MONOCYTE: 1.17%
  NEUTROPHIL: 8%
  NUCLEATED RED BLOOD CELLS: 0 /100WBC
  PLATELET COUNT: 1234 x10E3/uL
  ALANINE AMINOTRANSFERASE: 43.5 u/L
  ALBUMIN: 4.23 G/DL
  ALKALINE PHOSPHATASE: 331.5 u/L
  ASPARTATE AMINOTRANSFERASE: 80.83 u/L
  BLOOD UREA NITROGEN: 17.67 mg/dL
  CARBON DIOXIDE: 31.83 mmol/L
  CHLORIDE: 100.83 MEQ/L
  CHOLESTEROL: 69.5 mg/dL
  CREATINE PHOSPHOKINASE: 320 u/L
  CREATININE: 0.26 mg/dL
  GLUCOSE: 157.33 mg/dL
  LACTATE DEHYDROGENASE: 364.67 u/L
  LIPASE: 9.83 u/L
  PHOSPHORUS: 11.05 mg/dL
  POTASSIUM: 5.83 MEQ/L
  SODIUM: 141.07 MEQ/L
  TOTAL BILIRUBIN: 0.22 mg/dL
  TOTAL PROTEIN: 5.92 G/DL
  URIC ACID: 1.23 mg/dL
[3]
  ABSOLUTE BASOPHIL: 0 CELLS/uL
  ABSOLUTE EOSINOPHIL: 49.33 CELLS/uL
  ABSOLUTE LYMPHOCYTE: 12249.33 CELLS/uL
  ABSOLUTE MONOCYTE: 224.67 CELLS/uL
  ABSOLUTE SEGMENTED NEUTROPHIL: 1176.67 CELLS/uL
  BASOPHIL: 0%
  EOSINOPHIL: 0.33%
  ERYTHROCYTE COUNT: 5.54 x10E6/uL
  HEMATOCRIT: 33.9%
  HEMOGLOBIN: 13.13 G/DL
  LEUKOCYTE COUNT: 13.7 x10E3/uL
  LYMPHOCYTE: 89.67%
  MEAN CORPUSCULAR HEMOGLOBIN: 23.73 pg
  MEAN CORPUSCULAR HEMOGLOBIN CONCENTRATION: 38.77 G/DL
  MEAN CORPUSCULAR VOLUME: 61.23 fL
  MONOCYTE: 1.67%
  NEUTROPHIL: 8.33%
  NUCLEATED RED BLOOD CELLS: 0 /100WBC
  PLATELET COUNT: 1182.67 x10E3/uL
  ALANINE AMINOTRANSFERASE: 61.33 u/L
  ALBUMIN: 4.13 G/DL
  ALKALINE PHOSPHATASE: 328.67 u/L
  ASPARTATE AMINOTRANSFERASE: 85.67 u/L
  BLOOD UREA NITROGEN: 16 mg/dL
  CARBON DIOXIDE: 34 mmol/L
  CHLORIDE: 102.33 MEQ/L
  CHOLESTEROL: 75.67 mg/dL
  CREATINE PHOSPHOKINASE: 347.33 u/L
  CREATININE: 0.4 mg/dL
  GLUCOSE: 150.67 mg/dL
  LACTATE DEHYDROGENASE: 245.33 u/L
  LIPASE: 9 u/L
  PHOSPHORUS: 11.63 mg/dL
  POTASSIUM: 6.77 MEQ/L
  SODIUM: 143.43 MEQ/L
  TOTAL BILIRUBIN: 0.13 mg/dL
  TOTAL PROTEIN: 5.33 G/DL
  URIC ACID: 1.3 mg/dL
